The test system of series [1] is excised leaves of transgenic tobacco plant 25/2 progeny (CYP71A10-transformed). The experiment in a line: In vivo herbicide metabolism assay, excised leaves of CYP71A10-transformed tobacco. More on the design: species or system Nicotiana tabacum cv SR1. The settings on record: after 14 hours; 1.2 nmol herbicide; standard error in parentheses; four 25/2 plants. As to the method:
(§1) Seeds from primary transgenic tobacco plants transformed with CYP71A10 and control plants transformed with the pBI121 vector were grown in Petri dishes containing MS salts and 100 μg/ml kanamycin. At five weeks post-seeding, kanamycin-resistant plantlets were transplanted into pots containing soil and grown an additional two weeks. Single leaves of approximately 10 cm^2 in size were excised and their petioles inserted into 100 μl of H2 O containing radiolabeled herbicide. The leaves were placed in a growth chamber maintaining a temperature of 27° C. and incubated until the entire volume of the herbicide solution was drawn up by the transpirational stream of the leaves (about 3 hrs). The leaves were subsequently transferred into an Eppendorf tube containing distilled water and further incubated for a total of 14 hours.
(§2) [^14 C]-labeled herbicide was extracted from the leaves by grinding for 5 minutes in 250 μl methanol with a plastic pellet pestle driven by an electric drill. After centrifugation for 3 minutes at 14,000 g, 75μl of the supernatant was spotted on a Whatman K6F silica plate and developed in a solvent system containing chloroforn/ethanol/acetic acid 135:10:15 (v/v/v). The separated herbicide derivatives were visualized using an imaging scanner. Substrate conversion was quantified based on the amount of herbicide absorbed, and the ratios of the parent compound and the produced metabolites determined from the TLC profiles.

Series [2] concerns excised leaves of control tobacco plants transformed with pBI121. The experiment in a line: In vivo herbicide metabolism assay, excised leaves of control tobacco. The arrangement: species or system Nicotiana tabacum cv SR1. As to conditions: after 14 hours; 1.2 nmol herbicide; standard error in parentheses; three pBI121 control plants. As to the method: as §1, §2
Series [3] has as its system CYP71A10-transformed tobacco. As to the kind of experiment: Herbicide tolerance, seeds germinated on herbicide medium, CYP71A10-transformed tobacco. The settings on record: 1.0 μM chlortoluron in medium. The series is classed as in vivo, Nicotiana tabacum cv SR1. The protocol: (§3) T1 generation seeds from CYP71A10-transformed tobacco and pBI121-transformed control plants were placed onto Petri dishes containing MS salts and linuron (using its commercial formulation LOROX 50 DF) at active ingredient concentrations ranging from 0.25 to 3.0 μM. Chlortoluron was added at 0, 1.0, 5.0 and 10.0 μM concentrations using a 99.5% pure analytical standard. The Petri dishes were incubated in a growth chamber maintaining a constant temperature of 27° C. and a 16/8 hour light/dark cycle. The phytotoxic effects of the treatments were determined visually by comparison to control plants and plants grown in the absence of the herbicide. All treatments were repeated at least twice.

Series [4] deals with wild-type SR1 plants and pBI121-transformed control tobacco plants. As to the kind of experiment: Herbicide tolerance, seeds germinated on herbicide medium, control tobacco. It counts as in vivo, Nicotiana tabacum cv SR1. As to conditions: 1.0 μM chlortoluron in medium. As to the method:
as §3

Take `Cc1ccc(NC(=O)N(C)C)cc1Cl` [Chlortoluron, chlortoluron]: the “% of herbicide metabolized, CYP71A10-transformed” value in series [1] is listed as 85 (8.1) %. For the same compound, the “% of herbicide metabolized, Control” value in series [2] was 39 (7.5) %. For the same compound, in series [3], the “growth of the 25/2 plants” value is recorded as “modestly inhibited”. Moreover, the “growth of the control plants” value in series [4] was “completely arrested”.

Source of the values: patent publication US6121512A, “Cytochrome P-450 constructs and method of producing herbicide-resistant transgenic plants” (North Carolina State University, priority 1997, dated 2000).
